In paper PMC3376217 (2012):
Like-named read-outs stand apart in the source and are kept apart here.

Assays:
TOR2 [1] = molecular target: T1, TOR2 (Saccharomyces cerevisiae, UniProt P32600); test: IP radiometric kinase assay on PHAS-I; format: biochemical
TOR2 [2] = molecular target: T1, TOR2; test: IP radiometric kinase assay on PHAS-I; format: biochemical; remark: listed apart in the source

Compound | IC50 (TOR2 [1]) [nM] | IC50 (TOR2 [2]) [nM]
CCC(=O)N1CCN(c2ccc(-n3c(=O)ccc4cnc5ccc(-c6cnc7ccccc7c6)cc5c43)cc2C(F)(F)F)CC1 [Torin1] | 250 to 500 | –
Nc1ccc(-c2ccc3ncc4ccc(=O)n(-c5ccc(F)c(C(F)(F)F)c5)c4c3c2)cn1 [QL-IX-55] | – | ~50
